# Results: article PMC2860736 (Pharmacological research : the official journal of the …, 2010)
# Where two headings read alike, the source gives them in different places.
# Tests used:
# ovine COX-1 = biological target: T1, ovine COX-1 (Ovis aries, UniProt P05979); assay: COX functional assay; format: biochemical; details: for Inhibition of COX-1 (%) Mean ± std. dev. (N=3): compound 10 μM; for inhibition at 10 µM: read-out: Inhibition of COX-1 (%) Mean ± std. dev. (N=3)
# T1 sequence (P05979 25-600): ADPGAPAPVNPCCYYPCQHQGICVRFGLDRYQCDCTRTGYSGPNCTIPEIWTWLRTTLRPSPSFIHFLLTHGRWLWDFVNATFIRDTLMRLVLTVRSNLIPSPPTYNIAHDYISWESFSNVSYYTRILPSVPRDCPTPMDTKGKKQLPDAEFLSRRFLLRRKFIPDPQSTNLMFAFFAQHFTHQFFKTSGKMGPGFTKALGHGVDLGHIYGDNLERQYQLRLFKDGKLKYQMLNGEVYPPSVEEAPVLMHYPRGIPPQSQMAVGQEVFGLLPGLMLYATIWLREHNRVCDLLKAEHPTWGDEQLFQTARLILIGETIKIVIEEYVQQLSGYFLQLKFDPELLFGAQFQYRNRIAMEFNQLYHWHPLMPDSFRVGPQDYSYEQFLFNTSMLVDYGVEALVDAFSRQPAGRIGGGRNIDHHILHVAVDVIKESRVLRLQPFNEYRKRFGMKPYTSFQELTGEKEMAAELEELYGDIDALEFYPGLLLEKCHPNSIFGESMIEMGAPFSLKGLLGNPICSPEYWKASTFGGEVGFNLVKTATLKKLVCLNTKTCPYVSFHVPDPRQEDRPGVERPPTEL
# human COX-2 = biological target: T2, human COX-2 (Homo sapiens, UniProt P35354); assay: COX functional assay; format: biochemical; details: for Inhibition of COX-2 (%) Mean ± std. dev. (N=3): compound 10 μM; for COX-2 selectivity (IC50 COX-1 / IC50 COX-2): ratio of IC50 values; for inhibition at 10 µM: read-out: Inhibition of COX-2 (%) Mean ± std. dev. (N=3); for selectivity for COX-2 (COX-1 IC50 / COX-2 IC50): human COX-2 over COX-1
# T2 sequence (P35354 18-604): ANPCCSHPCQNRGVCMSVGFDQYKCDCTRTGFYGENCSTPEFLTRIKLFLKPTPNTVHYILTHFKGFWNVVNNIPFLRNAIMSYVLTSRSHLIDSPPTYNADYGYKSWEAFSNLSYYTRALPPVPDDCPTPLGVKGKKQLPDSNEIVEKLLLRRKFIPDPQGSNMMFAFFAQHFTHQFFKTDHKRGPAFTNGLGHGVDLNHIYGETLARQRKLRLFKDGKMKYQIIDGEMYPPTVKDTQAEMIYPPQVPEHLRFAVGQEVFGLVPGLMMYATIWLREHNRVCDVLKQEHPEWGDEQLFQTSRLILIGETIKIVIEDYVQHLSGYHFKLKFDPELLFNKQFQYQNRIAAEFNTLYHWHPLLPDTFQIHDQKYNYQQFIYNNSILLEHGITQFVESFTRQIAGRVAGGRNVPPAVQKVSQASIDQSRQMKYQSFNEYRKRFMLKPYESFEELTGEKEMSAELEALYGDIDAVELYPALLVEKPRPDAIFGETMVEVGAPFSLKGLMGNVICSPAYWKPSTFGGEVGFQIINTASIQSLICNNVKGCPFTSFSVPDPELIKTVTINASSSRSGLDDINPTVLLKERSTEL
# COX-1 [1] = details: read-out: IC50 COX-1; assay using human platelets; cited from earlier work
# ovine COX-2 = assay: Pulsed ultrafiltration LC-MS screening for COX-2 ligands; format: binding; details: for binding to COX-2 (result in words): pulsed ultrafiltration LC-MS; for peak enhancement compared to the control chromatograms: standards screened as mixtures, 0.7 μg/mL each, control denatured COX-2
# COX-2 = details: read-out: IC50 COX-2; cited from earlier work
# COX-1 [2] = details: read-out: IC50 COX-1; cited from earlier work
# [3] = read-out: IC50 COX-2, N=3, mean ± std. dev.
# [4] = IC50 COX-1, N=3, mean ± std. dev.
# [5] = IC50 COX-2, N=3, mean ± std. dev.
# [6] = read-out: IC50 COX-1, N=3, mean ± std. dev.
compound,measurement,setting,value
CC(=O)O[C@@H]1CC[C@@]2(C)[C@@H](CC[C@]3(C)[C@@H]2C(=O)C=C2[C@@H]4[C@@H](C)[C@H](C)CC[C@]4(C)CC[C@]23C)[C@@]1(C)C(=O)O [Acetyl-11-keto-β-boswellic acid],Inhibition of COX-1 (%) Mean ± std. dev. (N=3),ovine COX-1,39 ± 5%
same,Inhibition of COX-2 (%) Mean ± std. dev. (N=3),human COX-2,23 ± 15%
same,IC50,human COX-2; [3],85 ± 20 µM
same,IC50,"human COX-2; read-out: IC50 COX-2, N=3, mean ± std. dev., listed as acetyl-11-keto-β-boswellic acid",≥ 73 µM
same,IC50,COX-1 [1],6 µM
CC(=O)O[C@@H]1CC[C@@]2(C)[C@@H](CC[C@]3(C)[C@@H]2CC=C2[C@@H]4CC(C)(C)CC[C@]4(C)CC[C@]23C)[C@@]1(C)C(=O)O [Acetyl-α-boswellic acid],Inhibition of COX-1 (%) Mean ± std. dev. (N=3),ovine COX-1,74 ± 3%
same,Inhibition of COX-2 (%) Mean ± std. dev. (N=3),human COX-2,19 ± 5%
same,IC50,human COX-2; [3],> 100 µM
same,IC50,"human COX-2; read-out: IC50 COX-2, N=3, mean ± std. dev., listed as acetyl-α-boswellic acid",≥ 73 µM
CC(=O)O[C@@H]1CC[C@@]2(C)[C@@H](CC[C@]3(C)[C@@H]2CC=C2[C@@H]4[C@@H](C)[C@H](C)CC[C@]4(C)CC[C@]23C)[C@@]1(C)C(=O)O [Acetyl-β-boswellic acid],Inhibition of COX-1 (%) Mean ± std. dev. (N=3),ovine COX-1,31 ± 10%
same,Inhibition of COX-2 (%) Mean ± std. dev. (N=3),human COX-2,25 ± 6%
same,IC50,human COX-2; [3],73 ± 20 µM
same,IC50,"human COX-2; read-out: IC50 COX-2, N=3, mean ± std. dev., listed as acetyl-β-boswellic acid",≥ 73 µM
C=C(C)[C@@H]1CC[C@]2(C(=O)O)CC[C@]3(C)[C@H](CC[C@@H]4[C@@]5(C)CC[C@H](O)C(C)(C)[C@@H]5CC[C@]43C)[C@@H]12 [Betulinic acid],IC50,ovine COX-1; [4],20 ± 3 µM
same,inhibition at 10 µM,ovine COX-1,32 ± 5%
same,inhibition of COX-2 in the functional assay (result in words),human COX-2,almost no inhibition of COX-2
same,IC50,human COX-2; [5],> 100 µM
same,COX-2 selectivity (IC50 COX-1 / IC50 COX-2),human COX-2,COX-1 specific
same,inhibition at 10 µM,human COX-2,33 ± 5%
C[C@H]1COC2=C1C(=O)C(=O)c1c2ccc2c1CCCC2(C)C [Cryptotanshinone],IC50,ovine COX-1; [4],> 100 µM
same,inhibition at 10 µM,ovine COX-1,0%
same,IC50,human COX-2; [5],22 ± 10 µM
same,selectivity for COX-2 (COX-1 IC50 / COX-2 IC50),human COX-2,≥ 5 fold
same,COX-2 selectivity (IC50 COX-1 / IC50 COX-2),human COX-2,COX-2 specific
same,inhibition at 10 µM,human COX-2,31 ± 20%
same,binding to COX-2 (result in words),ovine COX-2,determined to be COX-2 ligands
CC1(C)[C@@H](O)CC[C@]2(C)[C@H]3C(=O)C=C4[C@@H]5C[C@@](C)(C(=O)O)CC[C@]5(C)CC[C@@]4(C)[C@]3(C)CC[C@@H]12 [Glycyrrhetic acid],inhibition of COX-1 in the functional assay (result in words),ovine COX-1,did not inhibit
same,inhibition of COX-2 in the functional assay (result in words),human COX-2,did not inhibit
CC(C)=CCOc1c2ccoc2cc2oc(=O)ccc12 [Isoimperatorin],inhibition of COX-1 in the functional assay (result in words),ovine COX-1,did not inhibit
same,inhibition of COX-2 in the functional assay (result in words),human COX-2,did not inhibit
O=C(/C=C/c1ccc(O)cc1)c1ccc(O)cc1O [Isoliquiritigenin],inhibition at 10 µM,human COX-2,23 ± 3%
same,peak enhancement compared to the control chromatograms,ovine COX-2,≥ 40%
COc1ccc(-c2cc(=O)c3c(O)cc(O)cc3o2)cc1 [Linarigenin],inhibition of COX-1 in the functional assay (result in words),ovine COX-1,did not inhibit
same,inhibition of COX-2 in the functional assay (result in words),human COX-2,did not inhibit
O=C1C[C@@H](c2ccc(O)cc2)Oc2cc(O)ccc21 [Liquiritigenin],binding to COX-2 (result in words),ovine COX-2,did not show sufficient binding to COX-2
CC(C)=CC(O)C/C(C)=C/COc1c2ccoc2cc2oc(=O)ccc12 (centres unmarked) [Notopterol],inhibition of COX-1 in the functional assay (result in words),ovine COX-1,did not inhibit
same,inhibition of COX-2 in the functional assay (result in words),human COX-2,did not inhibit
CC(C)=CCC/C(C)=C/Cc1cc2ccc(=O)oc2cc1O [Ostruthin],inhibition of COX-1 in the functional assay (result in words),ovine COX-1,did not inhibit
same,inhibition of COX-2 in the functional assay (result in words),human COX-2,did not inhibit
COc1cc(/C=C/C(=O)OCCc2ccccc2)ccc1O [Phenethyl trans-ferulate],Inhibition of COX-1 (%) Mean ± std. dev. (N=3),ovine COX-1,44 ± 3%
same,IC50,ovine COX-1; [6],18 ± 5 µM
same,Inhibition of COX-2 (%) Mean ± std. dev. (N=3),human COX-2,25 ± 10%
same,COX-2 selectivity (IC50 COX-1 / IC50 COX-2),human COX-2,0.58
same,COX-2 selectivity (IC50 COX-1 / IC50 COX-2),human COX-2; listed as phenethyl-trans-ferulate,inhibited COX-1 and COX-2 equally
same,IC50,human COX-2; [3],31 ± 15 µM
same,peak enhancement compared to the control chromatograms,ovine COX-2,≥ 40%
"Oc1ccc(/C=C/c2cc(O)cc(O)c2)cc1 [Resveratrol, reference compound]",IC50,ovine COX-1; [4],0.86 ± 0.1 µM
same,inhibition at 10 µM,ovine COX-1,86 ± 7%
same,IC50,COX-2,0.99 ± 0.4 µM
same,IC50,COX-1 [2],0.83 ± 0.44 µM
C=C(C)[C@@H]1CC[C@]2(C)[C@H](CC=C3[C@@H]4[C@@H](C)[C@H](C)CC[C@]4(C)CC[C@]32C)[C@@]1(C)CCC(=O)O [Roburic acid],Inhibition of COX-1 (%) Mean ± std. dev. (N=3),ovine COX-1,33 ± 8%
same,IC50,ovine COX-1; [6],5 ± 2 µM
same,Inhibition of COX-2 (%) Mean ± std. dev. (N=3),human COX-2,45 ± 5%
same,IC50,human COX-2; [3],9 ± 3 µM
CCC/C=C1\OC(=O)C2=C1CC[C@H]1[C@H]3C=C4C(=O)O/C(=C\CCC)[C@@]4(CC3)[C@@H]21 [Senkyunolide O],Inhibition of COX-1 (%) Mean ± std. dev. (N=3),ovine COX-1,0 ± 5%
same,IC50,ovine COX-1; [6],25 ± 10 µM
same,Inhibition of COX-2 (%) Mean ± std. dev. (N=3),human COX-2,52 ± 20%
same,selectivity for COX-2 (COX-1 IC50 / COX-2 IC50),human COX-2,≥ 5 fold
same,COX-2 selectivity (IC50 COX-1 / IC50 COX-2),human COX-2,5.00
same,IC50,human COX-2; [3],5 ± 5 µM
same,binding to COX-2 (result in words),ovine COX-2,determined to be COX-2 ligands
CC1(C)CC[C@]2(C)CC[C@]3(C)C(=CC[C@@H]4[C@@]5(C)CC[C@@H](O)[C@](C)(C(=O)O)[C@@H]5CC[C@]43C)[C@@H]2C1 [α-Boswellic acid],inhibition of COX-1 in the functional assay (result in words),ovine COX-1,did not inhibit
same,inhibition of COX-2 in the functional assay (result in words),human COX-2,did not inhibit
C[C@H]1[C@H](C)CC[C@]2(C)CC[C@]3(C)C(=CC[C@@H]4[C@@]5(C)CC[C@@H](O)[C@](C)(C(=O)O)[C@@H]5CC[C@]43C)[C@H]12 [β-Boswellic acid],inhibition at 10 µM,ovine COX-1,42 ± 15%
same,IC50,human COX-2; [5],> 100 µM
same,inhibition at 10 µM,human COX-2,17 ± 15%
CC[C@H](CC[C@@H](C)[C@H]1CC[C@H]2[C@@H]3CC=C4C[C@@H](O)CC[C@]4(C)[C@H]3CC[C@]12C)C(C)C [β-Sitosterol],inhibition of COX-1 in the functional assay (result in words),ovine COX-1,did not inhibit
same,inhibition of COX-2 in the functional assay (result in words),human COX-2,did not inhibit
